Data taken from US6737383B1, “Herbicidal oxadiazolidines” (priority 1999, dated 2004).

Experiments:
[1] = tested on: smallflower flatsedge; assay: Test B flood test smallflower flatsedge; format: in vivo, Cyperus difformis
Summary of the method: (§1)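 Flood test on plants grown to the 2-leaf stage; treated plants kept in greenhouse twelve to sixteen days, then visually rated against controls on a 0 (no effect) to 10 (complete control) scale.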

[2] = tested on: purple nutsedge; assay: Test B pre/postemergence purple nutsedge; format: in vivo, Cyperus rotundus
Summary of the method: (§2)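 Response is a visual 0-to-10 score relative to untreated plants, where 0 means no effect and 10 means complete control, taken twelve to sixteen days after application. Treatments went onto soil at planting and onto foliage of 1- to 4-leaf plants, using a surfactant-containing non-phytotoxic solvent.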

[3] = tested on: pigweed; assay: Test B pre/postemergence pigweed; format: in vivo, Amaranthus retroflexus
Summary of the method: as §2

[4] = tested on: rice; assay: Test B flood test rice; format: in vivo, Oryza sativa
Summary of the method: as §1

[5] = tested on: giant foxtail; assay: Test B pre/postemergence giant foxtail; format: in vivo, Setaria faberii
Summary of the method: as §2

[6] = tested on: cocklebur; assay: Test B pre/postemergence cocklebur; format: in vivo, Xanthium strumarium
Summary of the method: as §2

[7] = tested on: wheat; assay: Test B pre/postemergence wheat; format: in vivo, Triticum aestivum
Summary of the method: as §2

[8] = tested on: wild oat; assay: Test B pre/postemergence wild oat; format: in vivo, Avena fatua
Summary of the method: as §2

[9] = tested on: bamyardgrass; assay: Test B flood test barnyardgrass; format: in vivo, Echinochloa crus-galli
Summary of the method: as §1

[10] = tested on: soybean; assay: Test B pre/postemergence soybean; format: in vivo, Glycine max; conditions: for Plant response rating, Soybean: Rate 500 g/ha
Summary of the method: as §2

[11] = tested on: rape; assay: Test B pre/postemergence rape; format: in vivo, Brassica napus
Summary of the method: as §2

[12] = tested on: sugar beet; assay: Test B pre/postemergence sugar beet; format: in vivo, Beta vulgaris
Summary of the method: as §2

[13] = tested on: bedstraw; assay: Test B pre/postemergence bedstraw; format: in vivo, Galium aparine; conditions: Preemergence
Summary of the method: as §2

[14] = tested on: crabgrass; assay: Test B pre/postemergence crabgrass; format: in vivo, Digitaria sanguinalis
Summary of the method: as §2

[15] = tested on: duck salad; assay: Test B flood test duck salad; format: in vivo, Heteranthera limosa
Summary of the method: as §1

[16] = tested on: morningglory; assay: Test B pre/postemergence morningglory; format: in vivo, Ipomoea hederacea
Summary of the method: as §2

[17] = tested on: surinam grass; assay: Test B pre/postemergence surinam grass; format: in vivo, Brachiaria decumbens
Summary of the method: as §2

[18] = tested on: velvetleaf; assay: Test B pre/postemergence velvetleaf; format: in vivo, Abutilon theophrasti
Summary of the method: as §2

[19] = tested on: blackgrass; assay: Test B pre/postemergence blackgrass; format: in vivo, Alopecurus myosuroides
Summary of the method: as §2

[20] = tested on: corn; assay: Test B pre/postemergence corn; format: in vivo, Zea mays
Summary of the method: as §2

[21] = Rate 62 g/ha, flood test species, Pre-emergence, visual evaluation after twelve to sixteen days
[22] = Rate 125 g/ha, under heading Pre-emergence, flood test species, visual evaluation after twelve to sixteen days
[23] = Rate 250 g/ha, Pre-emergence (flood test species), scale 0 to 10, 0 is no effect, 10 is complete control
[24] = Rate 500 g/ha, Pre-emergence section of Table B, 0 to 10 scale (0 no effect, 10 complete control)
[25] = Postemergence, Rate 62 g/ha, scale of 0 to 10, 0 is no effect, 10 is complete control
[26] = Postemergence, Rate 125 g/ha, scale of 0 to 10 where 0 is no effect and 10 is complete control
[27] = Postemergence, Rate 250 g/ha, scale of 0 to 10, 0 is no effect, 10 is complete control
[28] = Postemergence, Rate 500 g/ha, scale of 0 to 10 where 0 is no effect and 10 is complete control
[29] = Preemergence, Rate 125 g/ha, scale of 0 to 10 where 0 is no effect and 10 is complete control
[30] = Preemergence, Rate 500 g/ha, scale of 0 to 10 where 0 is no effect and 10 is complete control
[31] = Preemergence, Rate 62 g/ha, scale 0 to 10 (0 no effect, 10 complete control)

CC(C)N(C(=O)n1oc(=O)n(C(CF)CF)c1=O)c1ccc(F)cc1F [Compound 595]
Plant response rating, S. Flatsedge (0 to 10 scale, 0 is no effect, 10 is complete control) [1, 21]: 0 | S. Flatsedge plant response rating (0 to 10 scale, 0 is no effect, 10 is complete control) [1, 22]: 0 | S. Flatsedge plant response rating [1, 23]: 0 | S. Flatsedge plant response rating [1, 24]: 0 | Nutsedge plant response rating [2, 25]: 0 | Plant response rating, Nutsedge [2, 26]: 0 | Nutsedge plant response rating [2, 27]: 0 | Plant response rating, Nutsedge [2, 28]: 5 | Nutsedge plant response rating [2, 29]: 3 | Plant response rating, Nutsedge [2, 30]: 4 | Plant response rating, Redroot pigweed [3, 26]: 0 | Redroot pigweed plant response rating [3, 27]: 3 | Plant response rating, Redroot pigweed [3, 28]: 7 | Redroot pigweed plant response rating [3, 31]: 0 | Redroot pigweed plant response rating [3, 29]: 10 | Plant response rating, Redroot pigweed [3, 30]: 10 | Plant response rating, Rice (0 to 10 scale, 0 is no effect, 10 is complete control) [4, 21]: 0 | Rice plant response rating (0 to 10 scale, 0 is no effect, 10 is complete control) [4, 22]: 0 | Rice plant response rating [4, 23]: 0 | Rice plant response rating [4, 24]: 0 | Giant foxtail plant response rating [5, 25]: 8 | Plant response rating, Giant foxtail [5, 26]: 9 | Giant foxtail plant response rating [5, 27]: 9 | Plant response rating, Giant foxtail [5, 28]: 9 | Giant foxtail plant response rating [5, 31]: 10 | Giant foxtail plant response rating [5, 29]: 10 | Plant response rating, Giant foxtail [5, 30]: 9 | Cocklebur plant response rating [6, 25]: 0 | Plant response rating, Cocklebur [6, 26]: 0 | Cocklebur plant response rating [6, 27]: 0 | Plant response rating, Cocklebur [6, 28]: 2 | Cocklebur plant response rating [6, 29]: 0 | Cocklebur plant response rating (0 to 10 scale) ([6]; Preemergence, Rate 250 g/ha): 0 | Plant response rating, Cocklebur [6, 30]: 0 | Plant response rating, Wheat [7, 26]: 0 | Wheat plant response rating [7, 27]: 2 | Plant response rating, Wheat [7, 28]: 3 | Wheat plant response rating [7, 31]: 0 | Wheat plant response rating [7, 29]: 1 | Plant response rating, Wheat [7, 30]: 6 | Plant response rating, Wild oats [8, 26]: 0 | Wild oats plant response rating [8, 27]: 2 | Plant response rating, Wild oats [8, 28]: 4 | Wild oats plant response rating [8, 31]: 3 | Wild oats plant response rating [8, 29]: 8 | Plant response rating, Wild oats [8, 30]: 9 | Plant response rating, Barnyardgrass (0 to 10 scale, 0 is no effect, 10 is complete control) [9, 21]: 0 | Barnyardgrass plant response rating (0 to 10 scale, 0 is no effect, 10 is complete control) [9, 22]: 0 | Barnyardgrass plant response rating [9, 23]: 0 | Barnyardgrass plant response rating [9, 24]: 0 | Soybean plant response rating [10, 27]: 4 | Plant response rating, Soybean ([10]; Postemergence, scale of 0 to 10 where 0 is no effect and 10 is complete control): 4 | Soybean plant response rating [10, 31]: 0 | Soybean plant response rating [10, 29]: 1 | Plant response rating, Soybean ([10]; Preemergence, scale of 0 to 10 where 0 is no effect and 10 is complete control): 4 | Rape plant response rating [11, 25]: 0 | Plant response rating, Rape [11, 26]: 0 | Rape plant response rating [11, 27]: 2 | Plant response rating, Rape [11, 28]: 2 | Rape plant response rating [11, 31]: 4 | Rape plant response rating [11, 29]: 4 | Plant response rating, Rape [11, 30]: 10 | Plant response rating, Sugarbeets [12, 26]: 3 | Sugarbeets plant response rating [12, 27]: 3 | Plant response rating, Sugarbeets [12, 28]: 3 | Sugarbeets plant response rating [12, 31]: 6 | Sugarbeets plant response rating [12, 29]: 8 | Plant response rating, Sugarbeets [12, 30]: 9 | Bedstraw plant response rating ([13]; Rate 62 g/ha, scale 0 to 10 (0 no effect, 10 complete control)): 0 | Bedstraw plant response rating ([13]; Rate 125 g/ha, scale of 0 to 10 where 0 is no effect and 10 is complete control): 8 | Bedstraw plant response rating ([13]; Rate 500 g/ha, scale of 0 to 10 where 0 is no effect and 10 is complete control): 10 | Crabgrass plant response rating [14, 25]: 5 | Plant response rating, Crabgrass [14, 26]: 8 | Crabgrass plant response rating [14, 27]: 9 | Plant response rating, Crabgrass [14, 28]: 9 | Crabgrass plant response rating [14, 31]: 7 | Crabgrass plant response rating [14, 29]: 9 | Plant response rating, Crabgrass [14, 30]: 10 | Plant response rating, Ducksalad (0 to 10 scale, 0 is no effect, 10 is complete control) [15, 21]: 0 | Ducksalad plant response rating (0 to 10 scale, 0 is no effect, 10 is complete control) [15, 22]: 0 | Ducksalad plant response rating [15, 23]: 0 | Ducksalad plant response rating [15, 24]: 0 | Morningglory plant response rating [16, 25]: 1 | Plant response rating, Morningglory [16, 26]: 2 | Morningglory plant response rating [16, 27]: 3 | Plant response rating, Morningglory [16, 28]: 6 | Morningglory plant response rating [16, 31]: 0 | Morningglory plant response rating [16, 29]: 0 | Plant response rating, Morningglory [16, 30]: 6 | B. signalgrass plant response rating [17, 25]: 0 | Plant response rating, B. signalgrass [17, 26]: 0 | B. signalgrass plant response rating [17, 27]: 6 | Plant response rating, B. signalgrass [17, 28]: 6 | B. signalgrass plant response rating [17, 31]: 2 | B. signalgrass plant response rating [17, 29]: 6 | B. signalgrass plant response rating (0 to 10 scale, 0 is no effect, 10 is complete control) ([17]; Preemergence, Rate 250 g/ha): 7 | B. signalgrass plant response rating [17, 30]: 9 | Plant response rating, Velvetleaf [18, 26]: 4 | Velvetleaf plant response rating [18, 27]: 7 | Plant response rating, Velvetleaf [18, 28]: 7 | Velvetleaf plant response rating [18, 31]: 7 | Velvetleaf plant response rating [18, 29]: 7 | Plant response rating, Velvetleaf [18, 30]: 9 | Blackgrass plant response rating [19, 25]: 3 | Plant response rating, Blackgrass [19, 26]: 7 | Blackgrass plant response rating [19, 27]: 9 | Plant response rating, Blackgrass [19, 28]: 9 | Blackgrass plant response rating [19, 31]: 6 | Blackgrass plant response rating [19, 29]: 9 | Blackgrass plant response rating (0 to 10 scale) ([19]; Preemergence, Rate 250 g/ha): 10 | Blackgrass plant response rating [19, 30]: 10 | Corn plant response rating [20, 25]: 0 | Plant response rating, Corn [20, 26]: 0 | Corn plant response rating [20, 27]: 2 | Plant response rating, Corn [20, 28]: 3 | Corn plant response rating [20, 31]: 0 | Corn plant response rating [20, 29]: 0 | Corn plant response rating (0 to 10 scale) ([20]; Preemergence, Rate 250 g/ha): 4 | Plant response rating, Corn [20, 30]: 6
